Assay results published in patent publication US9655886B2, “Substituted 2,3,4,5-tetrahydro-1H-pyrido[4,3-b]indoles, methods for use thereof” (priority 2015, dated 2017).

Columns and labels:
BALB/c male mice [1] = assay: Passive Avoidance of Mice in a Shuttle Chamber, scopolamine or MK-801 (Example 8); format: in vivo; details: scopolamine 0.3 mg/kg or MK-801 0.1 mg/kg; SB-742457 1 mg/kg; FIGS. 5-10
Procedure: A shuttle chamber (Ugo Basile, Italy) consisted of two sections was used. […] The sections were connected via a hole which could be shut with a vertical door. The floor was made of transverse metal bars on which DC current impulses could be fed. Experiments were carried out on aged male mice of line BALB/c weighing 20-24 grams.
On the first day of the experiment 30 minutes before training the mice were injected intraintestinally with physiological solution of scopolamine (0.3 mg/kg) or scopolamine in combination with antagonists of 5-HT6 receptors 1.2.1(2)HCl, 1.2.1(4)HCl or 1.2.1(5)HCl. Each group consisted of at least 8 animals. The animals were placed in the light section, and the latent period of the first entry into the dark chamber was registered. Then the vertical door was closed and the animal was punished by 0.6 mA DC current for 3 seconds. After that the animal was carried back to its living cell. In 22-24 hours the same animal was placed in the light section of the shuttle chamber once again and the latent period before its entry into the dark section, the total time of its stay in the light section and the number of entries into the dark section were registered. Each observation lasted for 5 minutes.
The experiment was carried out in the same way as in example 7. On the first day 30 minutes before training the mice were injected intra-intestinally with a physiological solution of scopolamine (0.3 mg/kg) or MK-801(0.1 mg/kg).

BALB/c male mice [2] = assay: Training Mice in the Morris Water labyrinth, scopolamine; format: in vivo; details: scopolamine 0.6 mg/kg; 1.2.1(5)HCl 0.1 mg/kg, 1.2.1(1)HCl 1 mg/kg, tacrine 3 mg/kg; FIG. 11-12
Procedure: A circular pool of 100 cm diameter and of 30 cm sides was used. It was filled with water at 20-22° C. A circular ceramic platform of 14 cm height was placed in the pool. The behavior of the animals was registered using an automated computer video system in addition with software package of movement analyzer Any-maze (Stoelting Co., US). The experiments were carried out on aged male mice of BALB/c line weighing 20-24 grams. Before the experiments mice fit for learning were selected. This was done by placing the platform 1 cm above the water level and putting an animal on the platform for 20 seconds. Then the mouse was put in the water on the opposite side of the pool and allowed to find the platform and climb onto it for 60 seconds, where it was left for additional 20 seconds. After that the mouse was repeatedly immersed in the water on the opposite side of the pool and allowed to search for the platform. If it failed in finding the platform within 60 seconds the experimentator helped it to find the platform and climb onto it. If the mice couldn't find the platform itself in two consecutive attempts it was excluded from the experiment.
During the next two days the platform was placed 0.5 centimeters lower the water level. Every day the mice were given four attempts for finding the platform within 60 seconds. The time interval between the attempts was 20 seconds, during which the mice stayed on the platform. Every day before the first attempt the mice was placed on the platform for 20 seconds. The time needed for finding and climbing the platform was registered. The animals were sunk in water in two different places on the side of the pool opposite to the platform.
The animals of the control group were injected with physiological solution. At least 8 animals were used in each group.
On the third day the platform was removed and each animal was placed in the pool once for a period of 60 seconds. The time each mouse spent in the area where the platform had been located during the previous days was registered. […]

SHK male mice = assay: Recognition of New Objects by Mice Under Scopolamine and MK-801; format: in vivo; details: scopolamine 1 mg/kg and MK-801 0.2 mg/kg; FIG. 13-14
Procedure: The experiments were carried out in a closed cross shaped labyrinth which consisted of 4 peripheral sections connected with the central chamber via a 7×7 cm hole. The labyrinth was made of black plastic and its sections were of 14×14×14 cm size. The top cover of the labyrinth was transparent.
A mouse was placed in the central section of the labyrinth and allowed to investigate the environment. A mouse was considered to have entered a section once all of its four paws were inside the chamber. A test was considered to be completed when the mouse had moved 12 times between the sections, having made a total of 13 visits. The floor of the labyrinth was cleaned after each animal.
With each mouse the test was carried out twice with 1 hour interval.
During the first test, each section of the labyrinth contained a circular plastic cup of 3 cm height and 7 cm diameter. During the second test the cover in each of the two opposing sections was replaced by a conical glass bulb of 7 cm height and 4 cm across the bottom. The time that the mice spent in each section of the labyrinth was registered and the index of new object recognition was calculated as the ratio of the time spent in the sections with the bulbs to the time spent in all sections of the labyrinth. If no preference is given to the sections with new objects the index is 0.5.
When new objects appear the mice spend more time in the section containing them that results in an increased recognition index. Scopolamine (1 mg/kg) and MK-801 (0.2 mg/kg) disturbed learning (memory) that leads to lowering of the recognition index.

BALB/c male mice [3] = assay: Mice Behavior an Elevated Cross Shaped Labyrinth (tranquilizing action); format: in vivo; details: preference index for open sections, number of defecations; FIG. 19-21
Text: The length of each section in the labyrinth is 30 cm, the width is 5 cm, the height of the walls is 15 cm. Two opposite sections are closed by transparent walls on the sides and on the butt ends, the other two sections are lit and opened. A mouse was placed in the center of the labyrinth and for the next five minutes the number of entries the open and closed sections and the time spent in each type of section was registered. […] The animals usually avoid the open sections (the preference index is between 0.2 and 0.3).

BALB/c male mice [4] = assay: Passive Avoidance of Mice in a Shuttle Chamber, memory disturbed by scopolamine (Example 7); format: in vivo; details: scopolamine 0.3 mg/kg, injected 30 minutes before training; FIGS. 2-4
Procedure: A shuttle chamber (Ugo Basile, Italy) consisted of two sections was used. […] The sections were connected via a hole which could be shut with a vertical door. The floor was made of transverse metal bars on which DC current impulses could be fed. Experiments were carried out on aged male mice of line BALB/c weighing 20-24 grams. On the first day of the experiment 30 minutes before training the mice were injected intraintestinally with physiological solution of scopolamine (0.3 mg/kg) or scopolamine in combination with antagonists of 5-HT6 receptors 1.2.1(2)HCl, 1.2.1(4)HCl or 1.2.1(5)HCl. Each group consisted of at least 8 animals. The animals were placed in the light section, and the latent period of the first entry into the dark chamber was registered. Then the vertical door was closed and the animal was punished by 0.6 mA DC current for 3 seconds. After that the animal was carried back to its living cell. In 22-24 hours the same animal was placed in the light section of the shuttle chamber once again and the latent period before its entry into the dark section, the total time of its stay in the light section and the number of entries into the dark section were registered. Each observation lasted for 5 minutes. The experiment was carried out during the day time in an isolated laboratory using white noise at a level of about 70 decibel above the human hearing threshold. Scopolamine causes the disturbance of training (memory loss) which results in […]. The fact that 5-HT6 receptor antagonists can improve the learning ability that has been disturbed by scopolamine is regarded as evidence for their nootropic effect.

5-HT6 receptor = molecular target: T1, 5-HT6 receptor (Homo sapiens, UniProt P50406); assay: Inhibition of serotonine stimulated intracellular cAMP in HEK 293 cells with expressed 5-HT6 receptor (LANCE cAMP); format: cell-based; details: HEK 293 cells with artificially expressed 5-HT6 receptor; reduction of cAMP induced by serotonine
T1 construct: expressed in transfected cells; host or cells: HEK 293
Procedure: The concentration of intracellular cAMP was determined using a LANCE cAMP reagent (PerkinElmer) by the method described by the manufacturer: [http://las.perkinelmer.com/content/Manuals/MAN_LANCEcAMP384KitUser.pdf].

T1 sequence (P50406 whole entry): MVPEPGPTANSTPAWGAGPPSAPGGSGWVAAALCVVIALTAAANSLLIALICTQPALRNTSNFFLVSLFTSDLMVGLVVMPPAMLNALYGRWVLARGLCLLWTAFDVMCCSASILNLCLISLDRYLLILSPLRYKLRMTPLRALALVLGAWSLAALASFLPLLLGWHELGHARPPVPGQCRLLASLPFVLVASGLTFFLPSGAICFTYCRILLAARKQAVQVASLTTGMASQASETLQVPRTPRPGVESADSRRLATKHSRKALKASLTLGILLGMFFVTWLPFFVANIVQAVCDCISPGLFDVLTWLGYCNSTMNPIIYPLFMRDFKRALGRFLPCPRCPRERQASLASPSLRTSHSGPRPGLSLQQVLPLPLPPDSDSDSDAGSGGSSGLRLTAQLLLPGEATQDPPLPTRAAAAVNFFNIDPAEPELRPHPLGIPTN

Row | Structure (SMILES) | nootropic action, passive avoidance (BALB/c male mice [1]) | improvement of mice's training, Morris water labyrinth (BALB/c male mice [2]) | nootropic action, new object recognition (SHK male mice) | tranquilizing action, elevated cross shaped labyrinth (BALB/c male mice [3]) | nootropic action (memory enhancement disturbed by scopolamine), passive avoidance (BALB/c male mice [4]) | other results
1 | Cc1ccc2c(c1)c1c(n2CCc2ccccc2)CCN(C)C1.Cl [1.2.1(1)HCl, 2,8-dimethyl-5-(2-phenylethyl)-2,3,4,5-tetrahydro-1H-pyrido[4,3-b]indole hydrochloride] | highest activity | statistically significant improvement of mice's training | nootropic action, the level of which is the most prominent | tranquilizing action, which is the most prominent |  | 
2 | Cc1ccc2c(c1)c1c(n2CCc2ccncc2)CCN(C)C1.Cl [1.2.1(2)HCl, 2,8-dimethyl-5-[2-(pyridin-4-yl)ethyl]-2,3,4,5-tetrahydro-1H-pyrido[4,3-b]indole hydrochloride] |  |  |  |  | nootropic action which is the most prominent | 
3 | Cc1ccc2c(c1)c1c(n2CCc2ccccn2)CCN(C)C1.Cl [1.2.1(4)HCl, 2,8-dimethyl-5-[2-(pyridin-2-yl)ethyl]-2,3,4,5-tetrahydro-1H-pyrido[4,3-b]indole hydrochloride] |  |  |  |  | nootropic action which is the most prominent | 
4 | Cc1ccc2c(c1)c1c(n2CCc2ccc(C)nc2)CCN(C)C1.Cl [1.2.1(5)HCl, 2,8-dimethyl-5-[2-(6-methylpyridin-3-yl)ethyl]-2,3,4,5-tetrahydro-1H-pyrido[4,3-b]indole hydrochloride] | nootropic action | statistically significant improvement of mice's training | nootropic action | tranquilizing action | nootropic action | 
5 | CN1CCc2c(c3ccccc3n2C#Cc2ccccc2)C1 [1.3(1), 2-methyl-5-phenylethynyl-2,3,4,5-tetrahydro-1H-pyrido[4,3-b]indole] |  |  |  |  |  | IC50 (5-HT6 receptor): 4.09 µM
6 | O=C1CC2(CCCC2)CC(=O)N1CCCCN1CCN(c2ncccn2)CC1 [Buspiron] |  |  |  | tranquilizing action |  | 
7 | O=S(=O)(c1ccccc1)c1cnc2c(N3CCNCC3)cccc2c1 [SB-742457] | inactive |  | nootropic action |  |  | 
8 | CC12CC3CC(C)(C1)CC(N)(C3)C2 [memantine] |  |  | nootropic action |  |  | 
9 | Nc1c2c(nc3ccccc13)CCCC2 [tacrine] |  | statistically significant improvement of mice's training |  |  |  | 
